Results as given in patent US12091411B2, “IRAK degraders and uses thereof” (Kymera Therapeutics, Inc., priority 2022, dated 2024).
Read-outs that look alike come from different tables or passages of the source.

Molecular target: T1, IRAK4 (Homo sapiens, UniProt Q9NWZ3)
T1 construct: Degradation of IRAK4 in OCI-LY10 was quantitatively measured using Meso Scale Discovery technology; endogenous in cells; host or cells: OCI-LY10
T1 sequence (Q9NWZ3 1-460): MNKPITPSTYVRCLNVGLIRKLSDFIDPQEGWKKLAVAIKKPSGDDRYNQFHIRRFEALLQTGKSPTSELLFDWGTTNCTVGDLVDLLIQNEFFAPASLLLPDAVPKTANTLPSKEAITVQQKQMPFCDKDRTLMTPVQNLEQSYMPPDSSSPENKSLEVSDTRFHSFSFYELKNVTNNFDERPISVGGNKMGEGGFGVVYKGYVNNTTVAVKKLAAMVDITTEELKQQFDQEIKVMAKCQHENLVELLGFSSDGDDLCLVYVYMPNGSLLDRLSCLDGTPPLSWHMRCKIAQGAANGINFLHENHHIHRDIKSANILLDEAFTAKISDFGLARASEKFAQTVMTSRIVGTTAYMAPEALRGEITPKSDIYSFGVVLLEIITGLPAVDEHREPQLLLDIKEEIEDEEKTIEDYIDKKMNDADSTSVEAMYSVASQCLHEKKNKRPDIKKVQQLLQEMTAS
Assay: IRAK4 MSD Degradation in OCI-LY10
Format: cell-based
Conditions: OCI-LY10 cells, MSD
Method in brief: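 OCI-LY10 cells exposed to 8-point 1:3 compound series (top 1 to 10 μM) for 4 to 24 h at 37 °C, 5% CO2. Lysate IRAK4 quantified by MSD sandwich immunoassay. DC50 from three-parameter logistic fit, binned A (<0.01 μM) to D (>0.2 μM or not tested).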

[1] = 4 hrs incubation, read-out: IRAK4 degradation in OCI-LY10 at 4 hrs: DC50
[2] = 24 hrs incubation, read-out: IRAK4 degradation in OCI-LY10 at 24 hrs: DC50

SMILES	DC50 [1] [nM]	DC50 [2] [nM]
CN(C[C@H]1CC[C@H](n2cc(NC(=O)c3cnn4ccc(N5CC6(CCOCC6)C5)nc34)c(C(F)F)n2)CC1)C1CCN(c2cccc3c2n(C)c(=O)n3C2CCC(=O)NC2=O)CC1(F)F (some centres unmarked) [I-511]	> 200	10 to 100
CN(C[C@H]1CC[C@H](n2cc(NC(=O)c3cnn4ccc(N5C6COCC5C6)nc34)c(C(F)F)n2)CC1)C1CCN(c2cccc3c2n(C)c(=O)n3C2CCC(=O)NC2=O)CC1(F)F (some centres unmarked) [I-524]	> 200	10 to 100
COc1cc2nn([C@H]3CC[C@H](CN4CCC5(CC4)CCN(c4ccc(Cl)c(C6CCC(=O)NC6=O)c4)CC5)CC3)cc2cc1NC(=O)c1cncc(C#N)c1 (some centres unmarked) [I-255]	> 200	> 200
O=C1CCC(c2cccc(C#CCN3CCN(C[C@H]4CC[C@@H](n5cc(NC(=O)c6cnn7ccc(N8C[C@@H]9C[C@H]8CO9)nc67)c(C(F)F)n5)CC4)CC3)c2)C(=O)N1 (some centres unmarked) [I-125]	> 200	> 200
Cn1c(=O)n(C2CCC(=O)NC2=O)c2cccc(C#CCN3CCN(C[C@H]4CC[C@H](n5cc(NC(=O)c6cnn7ccc(N8CCOC(C(F)F)C8)nc67)c(C(F)F)n5)CC4)CC3)c21 (some centres unmarked) [I-407]	> 200	> 200
C[C@@H]([C@H]1C[C@H](c2cccc3c2n(C)c(=O)n3C2CCC(=O)NC2=O)C1)N1CCN(C[C@H]2CC[C@H](n3cc(NC(=O)c4cnn5ccc(N6C[C@H]7CC6CO7)nc45)c(C(F)F)n3)CC2)CC1 (some centres unmarked) [I-575]	> 200	> 200
Cn1c(=O)n(C2CCC(=O)NC2=O)c2cccc(N3CC(CCC4(F)CN(C[C@H]5CC[C@H](n6cc(NC(=O)c7cnn8ccc(N9C[C@H]%10C[C@@H]9CO%10)nc78)c(C(F)F)n6)CC5)C4)C3)c21 (some centres unmarked) [I-785]	> 200	> 200
COc1cncc(C(=O)Nc2cc3cn([C@H]4CC[C@H](CN5CCC6(CC5)CCN(c5cccc7c5n(C)c(=O)n7C5CCC(=O)NC5=O)CC6)CC4)nc3cc2OC)c1 (some centres unmarked) [I-86]	> 200	> 200
Cn1c(=O)n(C2CCC(=O)NC2=O)c2cccc(C#CCN3CCN(C[C@H]4CC[C@H](n5cc(NC(=O)c6cnn7ccc(N8CCC9(COC9)C8)nc67)c(C(F)F)n5)CC4)CC3)c21 (some centres unmarked) [I-320]	< 10	> 200
CN(C[C@H]1CC[C@H](n2cc(NC(=O)c3cnn4ccc(N5CCC5)nc34)c(C(F)F)n2)CC1)C1CCN(c2cccc3c2n(C)c(=O)n3C2CCC(=O)NC2=O)CC1 (some centres unmarked) [I-277]	> 200	< 10
Cn1c(=O)n(C2CCC(=O)NC2=O)c2cccc(C#CCOC3CCN(C[C@H]4CC[C@H](n5cc(NC(=O)c6cnn7ccc(N8C[C@H]9C[C@@H]8CO9)nc67)c(Cl)n5)CC4)CC3)c21 (some centres unmarked) [I-167]	> 200	10 to 100
C[C@H]1CN(C[C@H]2CC[C@H](n3cc(NC(=O)c4cnn5ccc(N6C[C@H]7C[C@@H]6CO7)nc45)c(C(F)F)n3)CC2)CC[C@@H]1OCC#Cc1cccc2c1n(C1CC1)c(=O)n2C1CCC(=O)NC1=O (some centres unmarked) [I-63]	< 10	> 200
O=C1CCN(c2cncc3c2cccc3[C@H]2C[C@@H](CN3CCN(C[C@H]4CC[C@H](n5cc(NC(=O)c6cnn7ccc(N8C[C@H]9C[C@@H]8CO9)nc67)c(C(F)F)n5)CC4)CC3)C2)C(=O)N1 [I-6]	< 10	> 200
CN(C[C@H]1CC[C@H](n2cc3cc(NC(=O)c4cccc(C(F)(F)F)n4)c(C#N)cc3n2)CC1)C1CCN(c2cccc3c2n(C)c(=O)n3C2CCC(=O)NC2=O)CC1F (some centres unmarked) [I-558]	> 200	> 200
Cn1c(=O)n(C2CCC(=O)NC2=O)c2cccc(C3=CCN(C[C@H]4CC[C@H](n5cc6cc(NC(=O)c7cccc(C(F)(F)F)n7)ccc6n5)CC4)CC3F)c21 (some centres unmarked) [I-457]	> 200	> 200
COc1cc2nn([C@H]3CC[C@H](CN4CCC5(CC4)CCN(c4cccc6c(N7CCC(=O)NC7=O)cncc46)CC5)CC3)cc2cc1NC(=O)c1cncc(C#N)c1 [I-90]	> 200	> 200
Cn1c(=O)n(C2CCC(=O)NC2=O)c2cccc(C#CCOC3CCN(CC4CCN(c5nc(C(F)F)c(NC(=O)c6cnn7ccc(N8C[C@H]9C[C@@H]8CO9)nc67)s5)CC4)CC3)c21 (some centres unmarked) [I-207]	> 200	> 200
Cn1c(=O)n(C2CCC(=O)NC2=O)c2cccc(C#CCO[C@H]3CCN(C[C@H]4CC[C@H](n5cc(NC(=O)c6cnn7ccc(N8C[C@H]9C[C@@H]8CO9)nc67)c(C(F)F)n5)CC4)C[C@@H]3F)c21 (some centres unmarked) [I-23]	10 to 100	> 200
CN(C[C@H]1CC[C@H](n2cc(NC(=O)c3cnn4ccc(N5CCOC(C)(C)C5)nc34)c(C(F)F)n2)CC1)C1CCN(c2cccc3c2n(C)c(=O)n3C2CCC(=O)NC2=O)CC1(F)F (some centres unmarked) [I-530]	> 200	10 to 100

SMILES	DC50 [1] [nM]	DC50 [2] [nM]
Cn1c(=O)n(C2CCC(=O)NC2=O)c2cccc([C@@H]3CCN(C[C@H]4CC[C@H](n5cc6cc(NC(=O)c7cccc(C(F)F)n7)ccc6n5)CC4)C[C@H]3F)c21 (some centres unmarked) [I-629]	> 200	< 10
Cn1c(=O)n(C2CCC(=O)NC2=O)c2cccc(C#CCO[C@H]3CCN(C[C@H]4CC[C@H](n5cc(NC(=O)c6cnn7ccc(N8C[C@H]9C[C@@H]8CO9)nc67)c(C(F)F)n5)CC4)C3)c21 (some centres unmarked) [I-21]	< 10	> 200
Cn1c(=O)n(C2CCC(=O)NC2=O)c2cccc([C@@H]3CCN(C[C@H]4CC[C@H](n5cc6cc(NC(=O)c7cccc(C(F)(F)F)n7)ncc6n5)CC4)C[C@H]3F)c21 (single isomer, unassigned) [I-656]	> 200	< 10
Cn1c(=O)n(C2CCC(=O)NC2=O)c2ccc(N3CC(CO[C@H]4CCN(C[C@H]5CC[C@H](n6cc(NC(=O)c7cnn8ccc(N9C[C@H]%10C[C@@H]9CO%10)nc78)c(C(F)F)n6)CC5)C[C@H]4F)C3)c(F)c21 (single isomer, unassigned) [I-738]	> 200	< 10
CN(C[C@H]1CC[C@H](n2cc(NC(=O)c3cnn4ccc(N5CC6(CCCOC6)C5)nc34)c(C(F)F)n2)CC1)C1CCN(c2cccc3c2n(C)c(=O)n3C2CCC(=O)NC2=O)CC1(F)F (some centres unmarked) [I-510]	> 200	10 to 100
Cn1c(=O)n(C2CCC(=O)NC2=O)c2cccc(N3CCC4(CCN(C[C@H]5CC[C@H](n6cc(NC(=O)c7cnn8cccnc78)c(C(F)F)n6)CC5)CC4)CC3)c21 (some centres unmarked) [I-236]	> 200	< 10
Cn1c(=O)n(C2CCC(=O)NC2=O)c2cccc(N3CCN(C4CCN(C[C@H]5CC[C@H](n6cc(NC(=O)c7cnn8ccc(N9CCC%10(COC%10)C9)nc78)c(C(F)F)n6)CC5)CC4(F)F)CC3)c21 (some centres unmarked) [I-723]	> 200	< 10
CN(C[C@H]1CC[C@H](n2cc(NC(=O)c3cnn4ccc(N5CCC(C)(C)CC5)nc34)c(C(F)F)n2)CC1)C1CCN(c2cccc3c2n(C)c(=O)n3C2CCC(=O)NC2=O)CC1(F)F (some centres unmarked) [I-516]	> 200	> 200
Cn1c(=O)n(C2CCC(=O)NC2=O)c2cccc(N3CCC(CN4CCN(C[C@H]5CC[C@H](n6cc(NC(=O)c7cnn8ccc(N9C[C@H]%10C[C@@H]9CO%10)nc78)c(C(F)F)n6)CC5)CC4)CC3)c21 (some centres unmarked) [I-164]	< 10	> 200
CN(C[C@H]1CC[C@H](n2cc(NC(=O)c3cnn4ccc(N5CC(C)(C)C5)nc34)c(C(F)F)n2)CC1)C1CCN(c2cccc3c2n(C)c(=O)n3C2CCC(=O)NC2=O)CC1 (some centres unmarked) [I-275]	> 200	< 10
COc1cc2nn([C@H]3CC[C@H](CN4CCC5(CC4)CCN(c4cccc6c4n(C)c(=O)n6C4CCC(=O)NC4=O)CC5)CC3)cc2cc1NC(=O)c1cncc(C(F)(F)F)c1 (some centres unmarked) [I-92]	> 200	> 200
Cn1c(=O)n(C2CCC(=O)NC2=O)c2cccc(N3CCN([C@@H]4CCN(C[C@H]5CC[C@H](n6cc(NC(=O)c7cnn8ccc(N9C[C@H]%10C[C@@H]9CO%10)nc78)c(C(F)F)n6)CC5)CC4(F)F)CC3)c21 (some centres unmarked) [I-720]	> 200	< 10
Cn1c(=O)n(C2CCC(=O)NC2=O)c2cccc(C#CCN3CCN(C[C@H]4CC[C@H](n5cc(NC(=O)c6cnn7ccc(N8CC(F)(F)C8)nc67)c(C(F)F)n5)CC4)CC3)c21 (some centres unmarked) [I-414]	100 to 200	> 200
Cn1c(=O)n(C2CCC(=O)NC2=O)c2cccc([C@@H]3CCN(C[C@H]4CC[C@H](n5cc6cc(NC(=O)c7cccc(C#N)n7)c(C(C)(C)O)cc6n5)CC4)C[C@H]3F)c21 (some centres unmarked) [I-649]	> 200	< 10
COc1cc2nn([C@H]3CC[C@H](CN4CCC5(CC4)CCN(c4c(OC)ccc6c4n(C)c(=O)n6C4CCC(=O)NC4=O)CC5)CC3)cc2cc1NC(=O)c1cncc(C#N)c1 (some centres unmarked) [I-87]	< 10	< 10
Cn1c(=O)n(C2CCC(=O)NC2=O)c2cccc(C#CCN3C[C@H]4C[C@@H]3CN4C[C@H]3CC[C@H](n4cc(NC(=O)c5cnn6ccc(N7C[C@H]8C[C@@H]7CO8)nc56)c(C(F)F)n4)CC3)c21 (some centres unmarked) [I-45]	10 to 100	> 200
CN(C[C@H]1CC[C@H](n2cc(NC(=O)c3cnn4cccnc34)c(C(F)F)n2)CC1)C1CCN(c2cccc3c2n(C)c(=O)n3C2CCC(=O)NC2=O)CC1F (some centres unmarked) [I-482]	> 200	> 200
Cn1c(=O)n(C2CCC(=O)NC2=O)c2cccc(C#CCN3CCN(C[C@H]4CC[C@H](n5cc(NC(=O)c6cnn7ccc(N8CCSCC8)nc67)c(C(F)F)n5)CC4)CC3)c21 (some centres unmarked) [I-294]	> 200	< 10
